molecular target: T1, purified LasB protein from P. aeruginosa (Pseudomonas aeruginosa, UniProt P14756); assay: Fluorometric assay to determine Ki (Abz-Ala-Gly-Leu-Ala-p-Nitro-Benzyl-Amide substrate); type: biochemical; details: not given
T1 construct: purchased Merck or Charles River Laboratories
Experimental: Experiments were therefore conducted (1) to measure the potency of inhibition of compounds of the invention against purified Pseudomonas aeruginosa LasB enzyme and also experiments were conducted (2) to measure the ability of compounds of the invention to inhibit LasB-catalysed elastin degradation. The first assay uses a commercial fluorescent synthetic peptide and purified LasB enzyme. The LasB hydrolysis kinetics are measured allowing the determination of the IC50 and Ki of the inhibitors; the second is a more physiological assay using dialysed Pseudomonas aeruginosa supernatant as source of enzyme, plus its natural substrate Elastin. It is an "end point assay" that determines the percentage of LasB inhibition by each compound for one particular time point and inhibitor concentration. Technical details are described below:
This assay uses commercially available substrate (Abz-Ala-Gly-Leu-Ala-p-Nitro-Benzyl-Amide (Ex: 340 nm, Em: 415 nm) from Peptide International) and purified LasB protein from P. aeruginosa (provided by Merck or Charles River Laboratories). It is performed to determine LasB elastase activity and assess compound inhibition in 96-well plate format. All compounds of Formula (I) were assessed using the method described below.
Method: 10 to 140 ng/ml purified LasB is incubated with 250 µM Abz-Ala-Gly-Leu-Ala-p-Nitro-Benzyl-Amide in 50 mM Tris-HCl pH 7.4, 2.5 mM CaCl2, 0.01% of Triton X100 at 37°C. LasB activity (corresponding to fluorescence emission induced by substrate hydrolysis) is measured over 30 min at 37°C with a fluorescence plate reader such as the Perkin Elmer Envision or similar. Different range of inhibitor concentrations are routinely assessed depending of inhibitor potency from 0.0016 to 200 µM (2-fold dilutions series) in order to determine IC50.
The equation used to calculate the Ki from IC50 is: Ki = IC50 / (1+([S]/Km)) where [S] = 250 µM and Km = 214 µM.

T1 sequence (P14756 198-498): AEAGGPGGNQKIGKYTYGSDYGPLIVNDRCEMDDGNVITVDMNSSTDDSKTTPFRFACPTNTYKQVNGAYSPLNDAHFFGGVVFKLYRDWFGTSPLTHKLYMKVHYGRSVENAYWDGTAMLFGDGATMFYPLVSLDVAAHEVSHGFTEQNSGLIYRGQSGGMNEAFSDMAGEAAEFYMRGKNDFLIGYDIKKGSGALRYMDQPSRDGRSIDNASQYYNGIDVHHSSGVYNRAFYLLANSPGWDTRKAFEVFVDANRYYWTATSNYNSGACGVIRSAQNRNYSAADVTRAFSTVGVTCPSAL

Row | SMILES | Ki
1 | CN(C)CCOc1cccc(-c2csc(CNC(=O)C3(CC(=O)O)Cc4ccccc4C3)n2)c1 [Example 53, 2-[2-[[4-[3-[2-(dimethylamino)ethoxy]phenyl]thiazol-2-yl]methylcarbamoyl]indan-2-yl]acetic acid] | 200 to 10000 nM
2 | CC(=O)N1CC[N+](C)(CCCn2cc(-c3csc(CNC(=O)C4(CC(=O)[O-])Cc5ccccc5C4)n3)cn2)CC1 [Example 107, 2-[2-[[4-[1-[3-(4-acetyl-1-methyl-piperazin-1-ium-1-yl)propyl]pyrazol-4-yl]thiazol-2-yl]methylcarbamoyl]indan-2-yl]acetate] | 200 to 10000 nM
3 | C[n+]1ccc(CCCn2cc(-c3csc(CNC(=O)C4(CC(=O)[O-])Cc5ccccc5C4)n3)cn2)cc1 [Example 118, 2-[2-[[4-[1-[3-(1-methylpyridin-1-ium-4-yl)propyl]pyrazol-4-yl]thiazol-2-yl]methylcarbamoyl]indan-2-yl]acetate] | 200 to 10000 nM
4 | CN(C)CCOc1ccc(-c2csc(CNC(=O)C3(CC(=O)O)Cc4ccccc4C3)n2)cc1 [Example 48, 2-[2-[[4-[4-[2-(dimethylamino)ethoxy]phenyl]thiazol-2-yl]methylcarbamoyl]indan-2-yl]acetic acid] | 200 to 10000 nM
5 | CN(C)CCNS(=O)(=O)c1ccc(-c2csc(CNC(=O)C3(CC(=O)O)Cc4ccccc4C3)n2)cc1 [Example 131, 2-[2-[[4-[4-[2-(dimethylamino)ethylsulfamoyl]phenyl]thiazol-2-yl]methylcarbamoyl]indan-2-yl]acetic acid] | 200 to 10000 nM
6 | C[n+]1ccc(CCn2cc(-c3csc(CNC(=O)C4(CC(=O)[O-])Cc5ccccc5C4)n3)cn2)cc1 [Example 117, 2-[2-[[4-[1-[2-(1-methylpyridin-1-ium-4-yl)ethyl]pyrazol-4-yl]thiazol-2-yl]methylcarbamoyl]indan-2-yl]acetate] | 200 to 10000 nM
7 | CN(C)C1CN(c2cccc(-c3csc(CNC(=O)C4(CC(=O)O)Cc5ccccc5C4)n3)c2)C1 [Example 29, 2-[2-[[4-[3-[3-(dimethylamino)azetidin-1-yl]phenyl]thiazol-2-yl]methylcarbamoyl]indan-2-yl]acetic acid] | 200 to 10000 nM
8 | NC1CCN(C(=O)COc2ccc(-c3csc(CNC(=O)C4(CC(=O)O)Cc5ccccc5C4)n3)cc2)CC1 [Example 52, 2-[2-[[4-[4-[2-(4-amino-1-piperidyl)-2-oxo-ethoxy]phenyl]thiazol-2-yl]methylcarbamoyl]indan-2-yl]acetic acid] | 50 to 200 nM
9 | O=C(O)CC1(C(=O)NCc2nc(-c3cnn(CCCN4CCCCC4)c3)cs2)Cc2ccccc2C1 [Example 111, 2-[2-[[4-[1-[3-(1-piperidyl)propyl]pyrazol-4-yl]thiazol-2-yl]methylcarbamoyl]indan-2-yl]acetic acid] | 200 to 10000 nM
10 | C[N+](C)(C)CC(=O)Nc1ccc(-c2csc(CNC(=O)C3(CC(=O)[O-])Cc4ccccc4C3)n2)cc1 [Example 40, 2-[2-[[4-[4-[[2-(trimethylammonio)acetyl]amino]phenyl]thiazol-2-yl]methylcarbamoyl]indan-2-yl] acetate] | 200 to 10000 nM
11 | CN(C)C1CCN(C(=O)c2ccc(-c3csc(CNC(=O)C4(CC(=O)O)Cc5ccccc5C4)n3)cc2)CC1 [Example 17, 2-[2-[[4-[4-[4-(dimethylamino)piperidine-1-carbonyl]phenyl]thiazol-2-yl]methylcarbamoyl]indan-2-yl] acetic acid] | 200 to 10000 nM
12 | C[N+]1(C)CCN(C(=O)c2ccc(-c3csc(CNC(=O)C4(CC(=O)[O-])Cc5ccccc5C4)n3)cc2)CC1 [Example 22, 2-[2-[[4-[4-(4,4-dimethylpiperazin-4-ium-1-carbonyl)phenyl]thiazol-2-yl]methylcarbamoyl]indan-2-yl]acetate] | 200 to 10000 nM
13 | COc1ccc(C(=O)N2CCN(C)CC2)cc1-c1csc(CNC(=O)C2(CC(=O)O)Cc3ccccc3C2)n1 [Example 25, 2-[2-[[4-[2-methoxy-5-(4-methylpiperazine-1-carbonyl)phenyl)thiazol-2-yl]methylcarbamoyl]indan-2-yl]acetic acid] | 200 to 10000 nM
14 | CN(C)CCn1cc(-c2csc(CNC(=O)C3(CC(=O)O)Cc4ccccc4C3)n2)cn1 [Example 97, 2-[2-[[4-[1-[2-(dimethylamino)ethyl]pyrazol-4-yl]thiazol-2-yl]methylcarbamoyl]indan-2-yl]acetic acid] | 200 to 10000 nM
15 | CN(C)CCCNC(=O)c1ccccc1-c1csc(CNC(=O)C2(CC(=O)O)Cc3ccccc3C2)n1 [Example 21, 2-[2-[[4-[2-[3-(dimethylamino)propylcarbamoyl]phenyl]thiazol-2-yl]methylcarbamoyl]indan-2-yl]acetic acid] | 200 to 10000 nM
16 | CN(C)[C@H]1CCN(C(=O)c2ccc(-c3csc(CNC(=O)C4(CC(=O)O)Cc5ccccc5C4)n3)cc2)C1 [Example 18, 2-[2-[[4-[4-[(3S)-3-(dimethylamino)pyrrolidine-1-carbonyl]phenyl]thiazol-2-yl]methylcarbamoyl]indan-2-yl]acetic acid] | 200 to 10000 nM
17 | CN1CCN(C(=O)c2cncc(-c3csc(CNC(=O)C4(CC(=O)O)Cc5ccccc5C4)n3)c2)CC1 [Example 144, 2-[2-[[4-[5-(4-methylpiperazine-1-carbonyl)-3-pyridyl]thiazol-2-yl]methylcarbamoyl]indan-2-yl]acetic acid] | 200 to 10000 nM
18 | CN(C)CC(=O)Nc1cccc(-c2csc(CNC(=O)C3(CC(=O)O)Cc4ccccc4C3)n2)c1 [Example 41, 2-[2-[[4-[3-[[2-(dimethylamino)acetyl]amino]phenyl]thiazol-2-yl]methylcarbamoyl]indan-2-yl]acetic acid] | 200 to 10000 nM
19 | C[N+](C)(C)CC(=O)Nc1cccc(-c2csc(CNC(=O)C3(CC(=O)[O-])Cc4ccccc4C3)n2)c1 [Example 42, 2-[2-[[4-[3-[[2-(trimethylammonio)acetyl]amino]phenyl]thiazol-2-yl]methylcarbamoyl]indan-2-yl] acetate] | 200 to 10000 nM
20 | CN(C)C(=O)C1CCN(CCCn2cc(-c3csc(CNC(=O)C4(CC(=O)O)Cc5ccccc5C4)n3)cn2)CC1 [Example 113, 2-[2-[[4-[1-[3-[4-(dimethylcarbamoyl)-1-piperidyl]propyl]pyrazol-4-yl]thiazol-2-yl]methylcarbamoyl]indan-2-yl]acetic acid] | 200 to 10000 nM
21 | O=C(O)CC1(C(=O)NCc2nc3ccccc3s2)Cc2cc(Cl)c(Cl)cc2C1 [Example 4, 2-(2-((benzo[d]thiazol-2-ylmethyl)carbamoyl)-5,6-dichloro-2,3-dihydro-1H-inden-2-yl)acetic acid] | 200 to 10000 nM
22 | COc1ccc(C(=O)NCCN(C)C)cc1-c1csc(CNC(=O)C2(CC(=O)O)Cc3ccccc3C2)n1 [Example 24, 2-[2-[[4-[5-[2-(dimethylamino)ethylcarbamoyl]-2-methoxy-phenyl]thiazol-2-yl]methylcarbamoyl]indan-2-yl]acetic acid] | 200 to 10000 nM

same assay, conditions: Ki calculated from IC50, [S] = 250 µM, Km = 214 µM; 37°C, pH 7.4

Row | SMILES | Ki
23 | C[N+]1(CCCn2cc(-c3csc(CNC(=O)C4(CC(=O)[O-])Cc5ccccc5C4)n3)cn2)CCOCC1 [Example 100, 2-[2-[[4-[1-[3-(4-methylmorpholin-4-ium-4-yl)propyl]pyrazol-4-yl]thiazol-2-yl]methylcarbamoyl]indan-2-yl]acetate] | 200 to 10000 nM
24 | C[N+]1(C)CCC(C(=O)N2CC[N+](C)(CCCn3cc(-c4csc(CNC(=O)C5(CC(=O)O)Cc6ccccc6C5)n4)cn3)CC2)CC1 [Example 115, 2-[2-[[4-[1-[3-[4-(1,1-dimethylpiperidin-1-ium-4-carbonyl)-1-methyl-piperazin-1-ium-1-yl]propyl]pyrazol-4-yl]thiazol-2-yl]methylcarbamoyl]indan-2-yl] acetate] | 200 to 10000 nM

— patent publication EP3628672A1 (priority 2018, dated 2020)
